{
  "source": "patent US12551463B2",
  "about": "“Dosing of a Bruton's tyrosine kinase inhibitor” (Loxo Oncology, Inc., priority 2019, dated 2026)",
  "key": {"BTK wild type": {"target": "T1, BTK wild type (Homo sapiens, UniProt Q06187)", "T1 construct": "expressed in transfected cells", "test": "BTK Y223 autophosphorylation in HEK293 cells expressing BTK wild type", "assay_type": "cell-based", "details": "for IC90: HEK293, wild type BTK", "description": "HEK293 cell lines stably expressing BTK wild type and the mutant form C481S are generated using standard transfection methods. For assessment of cellular inhibition potency, cells are grown in DMEM+10% FBS+1 μg/mL puromycin (complete growth media) at 37° C. in a C02 incubator. Cells are harvested according to standard protocols using TrypLE (Gibco #12604-013), counted, resuspended in complete growth media, and added to 6 well assay plates at […] in 2 mL. Plates are incubated overnight at 37° C. with 5% C02. The following day, cells are treated for 2 hours with BTK-I, prepared as a 6-point dose curve, 1:3 dilution series with final concentrations starting at a maximum concentration of 300 nM and a constant DMSO concentration of 0.5% (v/v). Control wells contain 0.5% (v/v) DMSO alone (no inhibition control). All samples are tested in triplicate. Following compound incubation, growth medium is discarded, cells are washed with DPBS (1×) (Gibco #14190-144) and lysed in 1 mL of CelLytic™ M (Sigma #C2978) containing 1× Halt phosphatase and protease inhibitor cocktails (Pierce #78442). Plates are placed on ice for 1 hour with gentle agitation and stored at −80° C. overnight. The next day, cell lysates are placed in 1.5 mL tubes and cleared by centrifugation at 16,000×g for 10 minutes at 4° C. Supernatants are quantified by BCA (Pierce #23225) and stored at −80° C. Samples are analyzed by Simple Western (Protein Simple) with anti-phospho-BTK (Y223) (Cell signaling technologies (cst) #5082) and anti-BTK (cst #8547). β-actin is the used as a loading control and detected by regular Western blot with an anti-β-actin antibody (cst #4970). Simple Western results are analyzed with Compass software (Protein Simple). BTK Y223 phosphorylation signal is normalized to total BTK, and IC50 values are calculated using a 4-parameter fit in GraphPad Prism 7.04 software."}, "CLL/SLL": {"system": "CLL/SLL", "test": "Phase 1/2 clinical study, CLL/SLL patients", "assay_type": "in vivo, human", "from_the_text": "(§1) The study is an open-label, multi-center study of oral BTK-I to evaluate safety and efficacy as monotherapy and as part of combination therapy in patients with CLL/SLL and NHL who have failed or are intolerant to standard of care. This study includes monotherapy as well as combination treatment parts. The monotherapy part includes Phase 1 dose escalation and dose expansion as well as Phase 2. The combination therapy part is a Phase 1b (safety assessment and expansion) of BTK-I in combination with venetoclax, with or without anti-CD20 therapy. Phase 1 dose escalation will proceed prior to start of Phase 1b or Phase 2. Once a recommended Phase 2 dose (RP2D) is identified in Phase 1, enrollment can commence to the Phase 1b combination therapies and Phase 2 monotherapy cohorts.\n(§2) The primary objectives of the Phase 1 Dose Escalation and Expansion part of the study is to determine the maximum tolerated dose (MTD)/RP2D of oral BTK-I in patients with previously treated CLL/SLL and B-cell NHL.\n(§3) Patients are enrolled with histologically confirmed CLL/SLL or B-cell NHL who have failed or are intolerant to at least two prior standard of care regimens given in combination or sequentially or have received at least one prior BTK inhibitor-containing regimen when BTK inhibitor is approved in first line.\n(§4) BTK-I is administered in oral tablet form. Dose escalation will follow a 3+3 design starting with a 25 mg QD dose (followed by 50 mg QD (dose level cohort 2), 100 mg QD (dose level cohort 3), 150 mg QD (dose level cohort 4), 200 mg QD (dose level cohort 5), 250 mg QD (dose level cohort 6), and 300 mg QD (dose level cohort 7)). Cycle length will be 28 days. The drug limiting toxicity (DLT) period will be 28 days, commencing with the first dose of BTK-I.\n(§5) The primary objective of the Phase 2 is to assess the primary anti-tumor activity of BTK-I based on overall response rate (ORR) and as assessed by the Independent Review Committee.\n(§6) At the RP2D up to ˜600 patients with CLL/SLL or NHL will be enrolled to one of the following cohorts: • Cohort 1: Non-blastoid MCL patients treated with a prior BTK-inhibitor. • Cohort 2: CLL/SLL patients treated with 2 or more prior regimens, including a BTK inhibitor-containing regimen. • Cohort 3: CLL/SLL patients with no prior therapy. • Cohort 4: CLL/SLL patients treated with prior therapy, BTK inhibitor naive. • Cohort 5: WM patients treated with a prior BTK inhibitor containing regimen. • Cohort 6: MZL patients treated with a prior BTK inhibitor containing regimen. • Cohort 7: (Not otherwise specified) defined as CLL/SLL or NHL not otherwise specified in Cohorts 1 through 6, inclusive of CLL/SLL or NHL, Richter's transformation, blastoid MCL, and patients with history of CNS involvement or primary CNS lymphoma.\n(§7) Dosing during Phase 2 will be at the RP2D of 200 mg QD. The cycle length will be 28 days. BTK-I will be administered to the Phase 2 patients in oral tablet form at the RP2D. The dose (and schedule) chosen for Phase 2 may be changed by the SRC based on emerging data (e.g., PK, safety, and/or efficacy) as long as the new dose is not greater than the highest dose that has a DLT <33% and is determined to be safe by the SRC in Phase 1. If the RP2D is changed based on emerging data, patients enrolled to Phase 2 at a different dose may have the dose changed to the new dose."}, "MCL": {"system": "MCL", "test": "Phase 1/2 clinical study, mantle cell lymphoma patients", "assay_type": "in vivo, human", "from_the_text": "as §1, §2, §3, §4, §5, §6, §7"}, "DLBCL": {"system": "DLBCL", "test": "Phase 1/2 clinical study, DLBCL patients", "assay_type": "in vivo, human", "from_the_text": "as §1, with “cohorts. […]” for “cohorts.”\n(§8) The primary objective of the Phase 2 is to assess the primary anti-tumor activity of BTK-I based on overall response rate (ORR) and as assessed by the Independent Review Committee. […]\n(§9) Dosing during Phase 2 will be at the RP2D of 200 mg QD. […] The dose (and schedule) chosen for Phase 2 may be changed by the SRC based on emerging data (e.g., PK, safety, and/or efficacy) as long as the new dose is not greater than the highest dose that has a DLT <33% and is determined to be safe by the SRC in Phase 1. […]"}, "MZL": {"system": "MZL", "test": "Phase 1/2 clinical study, MZL patients", "assay_type": "in vivo, human", "from_the_text": "as §1, with “cohorts. […]” for “cohorts.”\nas §8, §9"}},
  "note": "Like-named read-outs stand apart in the source and are kept apart here.",
  "data": [
    {"molecule": "COc1ccc(F)cc1C(=O)NCc1ccc(-c2nn([C@@H](C)C(F)(F)F)c(N)c2C(N)=O)cc1", "note": "[BTK-I, (S)-5-amino-3-(4-((5-fluoro-2-methoxybenzamido)methyl)phenyl)-1-(1,1,1-trifluoropropane-2-yl)-1H-pyrazole-4-carboxamide]", "values": [
      {"measurement": "IC90", "setting": "BTK wild type; read-out: IC90", "value": 77.4, "unit": "nM"},
      {"measurement": "IC90", "setting": "BTK wild type; read-out: IC90 translated to total drug in human plasma", "value": "~0.806", "unit": "µg/mL"},
      {"measurement": "IC50", "setting": "BTK wild type; expressed as plasma concentration, read-out: IC50, inhibition of BTK in vitro", "value": 192, "unit": "nM"},
      {"measurement": "ORR", "setting": "CLL/SLL; 28 patients with 17p deletion, TP53 mutation, or both", "value": 79, "unit": "%"},
      {"measurement": "ORR", "setting": "CLL/SLL; 121 BTK-pretreated patients, CI: 53-71%", "value": 62, "unit": "%"},
      {"measurement": "ORR", "setting": "CLL/SLL; 139 efficacy-evaluable CLL/SLL patients, all dose levels, 95% CI: 55-71", "value": 63, "unit": "%"},
      {"measurement": "patients remaining on BTK-I", "setting": "CLL/SLL; all CLL/SLL patients", "value": 88, "unit": "%"},
      {"measurement": "ORR", "setting": "CLL/SLL; at ≥10 months (25/29)", "value": 86, "unit": "%"},
      {"measurement": "ORR", "setting": "CLL/SLL; discontinued covalent BTK inhibitor for progression [53/79]", "value": 67, "unit": "%"},
      {"measurement": "ORR", "setting": "CLL/SLL; discontinued covalent BTK inhibitor for toxicity or another reason [22/42]", "value": 52, "unit": "%"},
      {"measurement": "ORR", "setting": "CLL/SLL; followed for at least 8 months (35/49)", "value": 71, "unit": "%"},
      {"measurement": "BTK C481 mutant allele fraction from peripheral blood mononuclear cells", "setting": "CLL/SLL; majority of responding patients", "value": "decreased over time"},
      {"measurement": "responding patients no longer on therapy", "setting": "CLL/SLL; of 88 responders (4 progressed, 1 electively discontinued)", "value": 5},
      {"measurement": "non-evaluable (NE), patients", "setting": "CLL/SLL; of 139, discontinued prior to first response assessment", "value": 5},
      {"measurement": "PR-L, patients", "setting": "CLL/SLL; of 139 efficacy-evaluable", "value": 19},
      {"measurement": "partial response (PR), patients", "setting": "CLL/SLL; of 139 efficacy-evaluable", "value": 69},
      {"measurement": "progressive disease (PD), patients", "setting": "CLL/SLL; of 139 efficacy-evaluable", "value": 1},
      {"measurement": "stable disease (SD), patients", "setting": "CLL/SLL; of 139 efficacy-evaluable", "value": 45},
      {"measurement": "ORR", "setting": "CLL/SLL; progression on prior covalent BTK inhibitor, with BTK C481 mutation [15/20]", "value": 75, "unit": "%"},
      {"measurement": "ORR", "setting": "CLL/SLL; progression on prior covalent BTK inhibitor, without BTK C481 mutation [18/30]", "value": 60, "unit": "%"},
      {"measurement": "ORR", "setting": "MCL; 52 patients with prior covalent BTK inhibitor, 95% CI: 38-66", "value": 52, "unit": "%"},
      {"measurement": "ORR", "setting": "MCL; 56 efficacy-evaluable MCL patients, 95% CI: 38-65", "value": 52, "unit": "%"},
      {"measurement": "median time to first response", "setting": "MCL; MCL", "value": 1.8, "unit": "months"},
      {"measurement": "patients remaining on BTK-I", "setting": "MCL; all MCL patients", "value": 57, "unit": "%"},
      {"measurement": "responding patients who discontinued treatment", "setting": "MCL; of 29 responders (4 PD, 1 in CR)", "value": 5},
      {"measurement": "CR, patients", "setting": "MCL; of 56 efficacy-evaluable", "value": 14},
      {"measurement": "NE, patients", "setting": "MCL; of 56 efficacy-evaluable", "value": 5},
      {"measurement": "PD, patients", "setting": "MCL; of 56 efficacy-evaluable", "value": 12},
      {"measurement": "PR, patients", "setting": "MCL; of 56 efficacy-evaluable", "value": 15},
      {"measurement": "responses", "setting": "MCL; patients with blastoid variant MCL", "value": "2 of 4"},
      {"measurement": "responses", "setting": "MCL; patients with prior CAR-T", "value": "2 of 2"},
      {"measurement": "responses", "setting": "MCL; prior autologous or allogeneic transplant (9/14)", "value": 64, "unit": "%"},
      {"measurement": "responses/patients", "setting": "DLBCL", "value": "6/25"},
      {"measurement": "responses/patients", "setting": "MZL", "value": "2/9"}
    ]}
  ]
}
